Results from patent US20060069132A1, “Azolecarboxamide herbicides” (priority 2004, published 2006).

Assays:
giant foxtail = experiment: Test B pre-/postemergence herbicide test; format: in vivo, Setaria faberi; details: for Foxtail, Giant plant response rating (0 to 100 scale): 0 = no effect, 100 = complete control; for Foxtail, Giant plant response rating (0 to 100 scale) / Plant response rating, Foxtail, Giant: preemergence; for Plant response rating, Foxtail, Giant: visual rating 0-100, 0 no effect, 100 complete control; for Foxtail, Giant plant response rating: postemergence, visual rating, scale 0 (no effect) to 100 (complete control)
Outline: (§1)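 Pre: seeds sown, then sprayed. Post: 1–4-leaf plants (2–18 cm) sprayed at the same time. Paddy: flooded, treated at 2-leaf stage. Formulation: non-phytotoxic solvent with surfactant. Greenhouse 13–15 days; visual 0–100 score relative to controls.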

large crabgrass = experiment: Test B pre-/postemergence herbicide test; format: in vivo, Digitaria sanguinalis; details: for Crabgrass, Large plant response rating (0 to 100 scale): 0 = no effect, 100 = complete control; for Crabgrass, Large plant response rating (0 to 100 scale) / Plant response rating, Crabgrass, Large: preemergence; for Plant response rating, Crabgrass, Large: visual rating 0-100, 0 no effect, 100 complete control; for Crabgrass, Large plant response rating: postemergence, visual rating, scale 0 (no effect) to 100 (complete control)
Outline: as §1

[1] = tested on: small flower umbrella sedge; experiment: Test B flooded paddy test; format: in vivo, Cyperus difformis; details: 1000 g ai/ha, visual rating, scale 0 to 100 (0 no effect, 100 complete control), 13 to 15 days
Outline: (§2)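 Each value is a visual 0–100 response rating taken against controls 13 to 15 days after treatment in the greenhouse. Plants received formulated chemical postemergence at the 1- to 4-leaf stage or, in flooded paddy, at the 2-leaf stage.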

corn = experiment: Test B pre-/postemergence herbicide test; format: in vivo, Zea mays; details: for Corn plant response rating (0 to 100 scale): 0 = no effect, 100 = complete control; for Corn plant response rating (0 to 100 scale) / Plant response rating, Corn: preemergence; for Plant response rating, Corn: visual rating 0-100, 0 no effect, 100 complete control; for Corn plant response rating: postemergence, visual rating, scale 0 (no effect) to 100 (complete control)
Outline: as §1

Surinam grass = experiment: Test B pre-/postemergence herbicide test; format: in vivo, Urochloa decumbens; details: for Surinam Grass plant response rating (0 to 100 scale): 0 = no effect, 100 = complete control; for Surinam Grass plant response rating (0 to 100 scale) / Plant response rating, Surinam Grass: preemergence; for Plant response rating, Surinam Grass: visual rating 0-100, 0 no effect, 100 complete control; for Surinam Grass plant response rating: postemergence, visual rating, scale 0 (no effect) to 100 (complete control)
Outline: as §1

ducksalad = experiment: Test B flooded paddy test; format: in vivo, Heteranthera limosa; details: 1000 g ai/ha, visual rating, scale 0 to 100 (0 no effect, 100 complete control), 13 to 15 days
Outline: as §2

wild oat = experiment: Test B postemergence herbicide test; format: in vivo, Avena fatua; details: postemergence, visual rating, scale 0 (no effect) to 100 (complete control)
Outline: as §2

rice = experiment: Test B flooded paddy test; format: in vivo, Oryza sativa; details: 1000 g ai/ha, visual rating, scale 0 to 100 (0 no effect, 100 complete control), 13 to 15 days
Outline: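 Plants grow to 1- to 4-leaf stage (2–18 cm) for postemergence spraying, or to 2-leaf stage for the paddy test. Formulated compound is applied. Greenhouse holding lasts 13–15 days. Response is scored visually relative to controls, 0 no effect to 100 complete control; a dash means no result.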

velvetleaf = experiment: Test B pre-/postemergence herbicide test; format: in vivo, Abutilon theophrasti; details: for Velvetleaf plant response rating (0 to 100 scale): 0 = no effect, 100 = complete control; for Velvetleaf plant response rating (0 to 100 scale) / Plant response rating, Velvetleaf: preemergence; for Plant response rating, Velvetleaf: visual rating 0-100, 0 no effect, 100 complete control; for Velvetleaf plant response rating: postemergence, visual rating, scale 0 (no effect) to 100 (complete control)
Outline: as §1

wheat = experiment: Test B postemergence herbicide test; format: in vivo, Triticum aestivum; set-up: key to Wheat plant response rating: 0 = no effect, 100 = complete control; details: postemergence, visual rating, scale 0 (no effect) to 100 (complete control)
Outline: as §2

blackgrass = experiment: Test B postemergence herbicide test; format: in vivo, Alopecurus myosuroides; details: postemergence, visual rating, scale 0 (no effect) to 100 (complete control)
Outline: as §2

lambsquarters = experiment: Test B pre-/postemergence herbicide test; format: in vivo, Chenopodium album; details: for Lambsquarters plant response rating (0 to 100 scale): 0 = no effect, 100 = complete control; for Lambsquarters plant response rating (0 to 100 scale) / Plant response rating, Lambsquarters: preemergence; for Plant response rating, Lambsquarters: visual rating 0-100, 0 no effect, 100 complete control; for Lambsquarters plant response rating: postemergence, visual rating, scale 0 (no effect) to 100 (complete control)
Outline: as §1

pigweed = experiment: Test B pre-/postemergence herbicide test; format: in vivo, Amaranthus retroflexus; details: for Pigweed plant response rating (0 to 100 scale): 0 = no effect, 100 = complete control; for Pigweed plant response rating (0 to 100 scale) / Plant response rating, Pigweed: preemergence; for Plant response rating, Pigweed: visual rating 0-100, 0 no effect, 100 complete control; for Pigweed plant response rating: postemergence, visual rating, scale 0 (no effect) to 100 (complete control)
Outline: as §1

barnyardgrass = experiment: Test B flooded paddy test; format: in vivo, Echinochloa crus-galli; details: 1000 g ai/ha, visual rating, scale 0 to 100 (0 no effect, 100 complete control), 13 to 15 days
Outline: as §2

morningglory = experiment: Test B pre-/postemergence herbicide test; format: in vivo, Ipomoea coccinea; details: for Morningglory plant response rating (0 to 100 scale): 0 = no effect, 100 = complete control; for Morningglory plant response rating (0 to 100 scale) / Plant response rating, Morningglory: preemergence; for Plant response rating, Morningglory: visual rating 0-100, 0 no effect, 100 complete control; for Morningglory plant response rating: postemergence, visual rating, scale 0 (no effect) to 100 (complete control)
Outline: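 Evaluation is visual, comparing treated with control plants on a scale where 0 means no effect and 100 means full control. Treatments were preemergence, or postemergence on seedlings 2–18 cm tall, and held 13–15 days in the greenhouse.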

SMILES: CCNC(=O)c1ccc(F)c(NC(=O)c2cn(C(C)(C)C)nc2CC)c1 [Compound 193]
- Foxtail, Giant plant response rating (0 to 100 scale) (giant foxtail; 125 g ai/ha): 100
- Plant response rating, Foxtail, Giant (giant foxtail; 500 g ai/ha): 100
- Foxtail, Giant plant response rating (giant foxtail; 125 g ai/ha): 10
- Foxtail, Giant plant response rating (giant foxtail; 500 g ai/ha): 20
- Crabgrass, Large plant response rating (0 to 100 scale) (large crabgrass; 125 g ai/ha): 100
- Plant response rating, Crabgrass, Large (large crabgrass; 500 g ai/ha): 100
- Crabgrass, Large plant response rating (large crabgrass; 125 g ai/ha): 10
- Crabgrass, Large plant response rating (large crabgrass; 500 g ai/ha): 10
- Sedge, Umbrella plant response rating [1]: 80
- Corn plant response rating (0 to 100 scale) (corn; 125 g ai/ha): 70
- Plant response rating, Corn (corn; 500 g ai/ha): 100
- Corn plant response rating (corn; 125 g ai/ha): 10
- Corn plant response rating (corn; 500 g ai/ha): 20
- Surinam Grass plant response rating (0 to 100 scale) (Surinam grass; 125 g ai/ha): 80
- Plant response rating, Surinam Grass (Surinam grass; 500 g ai/ha): 100
- Surinam Grass plant response rating (Surinam grass; 125 g ai/ha): 10
- Surinam Grass plant response rating (Surinam grass; 500 g ai/ha): 10
- Ducksalad plant response rating (ducksalad): 90
- Oat, Wild plant response rating (wild oat; 125 g ai/ha): 0
- Oat, Wild plant response rating (wild oat; 500 g ai/ha): 0
- Rice plant response rating (rice): 80
- Velvetleaf plant response rating (0 to 100 scale) (velvetleaf; 125 g ai/ha): 70
- Plant response rating, Velvetleaf (velvetleaf; 500 g ai/ha): 100
- Velvetleaf plant response rating (velvetleaf; 125 g ai/ha): 50
- Velvetleaf plant response rating (velvetleaf; 500 g ai/ha): 70
- Wheat plant response rating (wheat; 125 g ai/ha): 10
- Wheat plant response rating (wheat; 500 g ai/ha): 10
- Blackgrass plant response rating (blackgrass; 125 g ai/ha): 0
- Blackgrass plant response rating (blackgrass; 500 g ai/ha): 20
- Lambsquarters plant response rating (0 to 100 scale) (lambsquarters; 125 g ai/ha): 100
- Plant response rating, Lambsquarters (lambsquarters; 500 g ai/ha): 100
- Lambsquarters plant response rating (lambsquarters; 125 g ai/ha): 90
- Lambsquarters plant response rating (lambsquarters; 500 g ai/ha): 90
- Pigweed plant response rating (0 to 100 scale) (pigweed; 125 g ai/ha): 100
- Plant response rating, Pigweed (pigweed; 500 g ai/ha): 100
- Pigweed plant response rating (pigweed; 125 g ai/ha): 20
- Pigweed plant response rating (pigweed; 500 g ai/ha): 60
- Barnyardgrass plant response rating (barnyardgrass): 80
- Morningglory plant response rating (0 to 100 scale) (morningglory; 125 g ai/ha): 40
- Plant response rating, Morningglory (morningglory; 500 g ai/ha): 100
- Morningglory plant response rating (morningglory; 125 g ai/ha): 30
- Morningglory plant response rating (morningglory; 500 g ai/ha): 70

SMILES: CCN(CC)C(=O)c1cccc(NC(=O)c2sc(C(C)(C)C)nc2C)c1 [Compound 199]
- Foxtail, Giant plant response rating (0 to 100 scale) (giant foxtail; 125 g ai/ha): 10
- Plant response rating, Foxtail, Giant (giant foxtail; 500 g ai/ha): 100
- Foxtail, Giant plant response rating (giant foxtail; 125 g ai/ha): 10
- Foxtail, Giant plant response rating (giant foxtail; 500 g ai/ha): 10
- Crabgrass, Large plant response rating (0 to 100 scale) (large crabgrass; 125 g ai/ha): 90
- Plant response rating, Crabgrass, Large (large crabgrass; 500 g ai/ha): 100
- Crabgrass, Large plant response rating (large crabgrass; 125 g ai/ha): 10
- Crabgrass, Large plant response rating (large crabgrass; 500 g ai/ha): 10
- Sedge, Umbrella plant response rating [1]: 10
- Corn plant response rating (0 to 100 scale) (corn; 125 g ai/ha): 0
- Plant response rating, Corn (corn; 500 g ai/ha): 10
- Corn plant response rating (corn; 125 g ai/ha): 10
- Corn plant response rating (corn; 500 g ai/ha): 20
- Surinam Grass plant response rating (0 to 100 scale) (Surinam grass; 125 g ai/ha): 10
- Plant response rating, Surinam Grass (Surinam grass; 500 g ai/ha): 70
- Surinam Grass plant response rating (Surinam grass; 125 g ai/ha): 10
- Surinam Grass plant response rating (Surinam grass; 500 g ai/ha): 20
- Ducksalad plant response rating (ducksalad): 0
- Oat, Wild plant response rating (wild oat; 125 g ai/ha): 10
- Oat, Wild plant response rating (wild oat; 500 g ai/ha): 10
- Rice plant response rating (rice): 20
- Velvetleaf plant response rating (0 to 100 scale) (velvetleaf; 125 g ai/ha): 0
- Plant response rating, Velvetleaf (velvetleaf; 500 g ai/ha): 60
- Velvetleaf plant response rating (velvetleaf; 125 g ai/ha): 20
- Velvetleaf plant response rating (velvetleaf; 500 g ai/ha): 30
- Wheat plant response rating (wheat; 125 g ai/ha): 0
- Wheat plant response rating (wheat; 500 g ai/ha): 10
- Blackgrass plant response rating (blackgrass; 125 g ai/ha): 0
- Blackgrass plant response rating (blackgrass; 500 g ai/ha): 10
- Lambsquarters plant response rating (0 to 100 scale) (lambsquarters; 125 g ai/ha): 80
- Plant response rating, Lambsquarters (lambsquarters; 500 g ai/ha): 90
- Lambsquarters plant response rating (lambsquarters; 125 g ai/ha): 60
- Lambsquarters plant response rating (lambsquarters; 500 g ai/ha): 70
- Pigweed plant response rating (0 to 100 scale) (pigweed; 125 g ai/ha): 90
- Plant response rating, Pigweed (pigweed; 500 g ai/ha): 100
- Pigweed plant response rating (pigweed; 125 g ai/ha): 10
- Pigweed plant response rating (pigweed; 500 g ai/ha): 40
- Barnyardgrass plant response rating (barnyardgrass): 10
- Morningglory plant response rating (0 to 100 scale) (morningglory; 125 g ai/ha): 0
- Plant response rating, Morningglory (morningglory; 500 g ai/ha): 60
- Morningglory plant response rating (morningglory; 125 g ai/ha): 40
- Morningglory plant response rating (morningglory; 500 g ai/ha): 60
